Test results taken from patent US10927126B2, “Positive allosteric modulators of the muscarinic acetylcholine receptor M4” (Vanderbilt University, priority 2016, dated 2021).
Structures can show the parent of a compound that is named as a salt.

Biological target: T1, Human M4 (Homo sapiens, UniProt P08173)
T1 sequence (P08173 1-479): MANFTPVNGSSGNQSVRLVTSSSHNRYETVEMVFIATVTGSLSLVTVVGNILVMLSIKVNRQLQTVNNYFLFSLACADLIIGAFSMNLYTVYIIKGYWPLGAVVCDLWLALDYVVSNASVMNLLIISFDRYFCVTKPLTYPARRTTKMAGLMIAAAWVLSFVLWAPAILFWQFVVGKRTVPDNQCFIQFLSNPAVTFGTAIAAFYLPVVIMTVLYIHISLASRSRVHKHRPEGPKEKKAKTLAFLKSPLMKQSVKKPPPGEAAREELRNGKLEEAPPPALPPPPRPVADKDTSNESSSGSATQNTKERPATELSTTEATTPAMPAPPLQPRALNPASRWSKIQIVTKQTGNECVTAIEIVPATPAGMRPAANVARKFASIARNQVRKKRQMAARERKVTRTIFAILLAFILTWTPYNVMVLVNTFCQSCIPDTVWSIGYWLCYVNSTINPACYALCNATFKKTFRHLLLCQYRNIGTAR
Assay: mAChR M4 cell-based functional assay (calcium flux, potentiation of EC20 acetylcholine response)
Design: Emax: dose or concentration left out as unconfirmed
Details: not given

EC50	Emax	Structure (SMILES)
0.0789 µM	80%	Cc1nnc2sc3c(NCc4ccc(C(C)(C)O)cc4F)nccc3c2c1C [Compound 21, 2-[4-[[(3,4-dimethylpyrido[4′,3′:4,5]thieno[2,3-c]pyridazin-8-yl)amino]methyl]-3-fluoro-phenyl]propan-2-ol]
	76.8%	COc1ccc(CNc2nccc3c2sc2nnc(C)c(C)c23)cc1 [Compound 9, N-[(4-methoxyphenyl)methyl]-3,4-dimethyl-pyrido[4′,3′:4,5]thieno[2,3-c]pyridazin-8-amine hydrochloride]
0.0123 µM	80.3%	Cc1nnc2sc3c(NC4CCCC4)nccc3c2c1C [Compound 5, N-Cyclopentyl-3,4-dimethyl-pyrido[4′,3′:4,5]thieno[2,3-c]pyridazin-8-amine Hydrochloride]
0.0169 µM	117%	Cc1nnc2sc3c(NC4CN(c5ccc(C#N)cn5)C4)nccc3c2c1C [Compound 22, 6-[3-[(3,4-dimethylpyrido[4′,3′:4,5]thieno[2,3-c]pyridazin-8-yl)amino]azetidin-1-yl]pyridine-3-carbonitrile]
2.63 µM	76.6%	Cc1nc2sc3c(NCc4ccc(C(C)(C)O)c(F)c4)nccc3c2c(C)c1Cl [Compound 31, 2-(4-(((3-chloro-2,4-dimethylthieno[2,3-b:5,4-c′]dipyridin-8-yl)amino)methyl)-2-fluorophenyl)propan-2-ol]
0.714 µM	79.5%	Cc1nc2sc3c(N4CCCC4)nccc3c2c(C)c1Cl [Compound 30, 3-chloro-2,4-dimethyl-8-(pyrrolidin-1-yl)thieno[2,3-b:5,4-c′]dipyridine]
1.03 µM	72.8%	Cc1nnc2sc3c(NCc4ccc(OC(F)(F)F)cc4)nccc3c2c1C [Compound 11, 3,4-dimethyl-N-[[4-(trifluoromethoxy)phenyl]methyl] pyrido[4′,3′:4,5]thieno[2,3-c]pyridazin-8-amine hydrochloride]
0.066 µM	81.9%	Cc1nnc2sc3c(NCc4ccc(C(=O)N5CCOCC5)cc4)nccc3c2c1C [Compound 13, [4-[[(3,4-dimethylpyrido[4′,3′:4,5]thieno[2,3-c]pyridazin-8-yl)amino]methyl]phenyl]-morpholino-methanone]

Test system: not given
Assay: not given
Details: Alzheimer's disease patients; cited from earlier work

Structure (SMILES)	effect on psychotic behavioral symptoms such as delusions, suspiciousness, vocal outbursts, and hallucinations
CCCCCCOc1nsnc1C1=CCCN(C)C1 [xanomeline]	reduce psychotic behavioral symptoms

Test system: not given
Assay: not given
Details: similar profiles to known antipsychotic drugs, without causing catalepsy; cited from earlier work

Structure (SMILES)	activity in animal models
CCCCCCOc1nsnc1C1=CCCN(C)C1 [xanomeline]	active in animal models

Test system: not given
Assay: not given
Details: patients treated with AChE inhibitor; cited from earlier work

Structure (SMILES)	patients with elevated liver transaminases
Nc1c2c(nc3ccccc13)CCCC2 [tacrine]	about 30%
